Assay results: ChEMBL document CHEMBL3400121, “Design and synthesis of novel 1,2,3-triazole-pyrimidine-urea hybrids as potential anticancer agents” (Bioorg Med Chem Lett, 2015)
Active and inactive are the calls of the source. The rule behind the calls is not given here.

What was measured:
MGC-803 [1] = assay: Induction of apoptosis in human MGC803 cells assessed as viable cells at 4 uM after 12 to 24 hrs using annexin V-FITC/PI double staining by flow cytometry (reference value: 90.4 %); assay type: functional; settings: read-out: Activity
MGC-803 [2] = assay: Induction of apoptosis in human MGC803 cells assessed as total apoptotic cells at 2 uM after 12 to 24 hrs using annexin V-FITC/PI double staining by flow cytometry (reference value: 2.8 %); assay type: functional
MGC-803 [3] = assay: Induction of apoptosis in human MGC803 cells assessed as viable cells at 2 uM after 12 to 24 hrs using annexin V-FITC/PI double staining by flow cytometry (reference value: 90.4 %); assay type: functional; settings: read-out: Activity
MGC-803 [4] = assay: Induction of apoptosis in human MGC803 cells assessed as early apoptotic cells at 1 uM after 12 to 24 hrs using annexin V-FITC/PI double staining by flow cytometry (reference value: 1.6 %); assay type: functional
MGC-803 [5] = assay: Induction of apoptosis in human MGC803 cells assessed as decrease in pro-caspase 3 level at 2 to 4 uM after 48 hrs by Western blot analysis; assay type: functional, cell-based
MGC-803 [6] = assay: Induction of apoptosis in human MGC803 cells assessed as total apoptotic cells at 1 uM after 12 to 24 hrs using annexin V-FITC/PI double staining by flow cytometry (reference value: 2.8 %); assay type: functional
MGC-803 [7] = assay: Induction of apoptosis in human MGC803 cells assessed as formation of apoptotic bodies at 1 to 4 uM after 24 hrs using Hoechst 33258 staining by fluorescence microscopy; assay type: functional, cell-based
MGC-803 [8] = assay: Induction of apoptosis in human MGC803 cells assessed as late apoptotic cells at 4 uM after 12 to 24 hrs using annexin V-FITC/PI double staining by flow cytometry (reference value: 1.2 %); assay type: functional
MGC-803 [9] = assay: Anticancer activity against human MGC803 cells assessed as inhibition of proliferation after 72 hrs by MTT assay; assay type: functional, cell-based; settings: MGC-803, 72 h
MGC-803 [10] = assay: Induction of apoptosis in human MGC803 cells assessed as necrotic cells at 2 uM after 12 to 24 hrs using annexin V-FITC/PI double staining by flow cytometry (reference value: 6.8 %); assay type: functional
MGC-803 [11] = assay: Induction of apoptosis in human MGC803 cells assessed as late apoptotic cells at 2 uM after 12 to 24 hrs using annexin V-FITC/PI double staining by flow cytometry (reference value: 1.2 %); assay type: functional
MGC-803 [12] = assay: Induction of apoptosis in human MGC803 cells after 12 to 24 hrs using annexin V-FITC/PI double staining by flow cytometry; assay type: functional, cell-based
MGC-803 [13] = assay: Induction of apoptosis in human MGC803 cells assessed as viable cells at 1 uM after 12 to 24 hrs using annexin V-FITC/PI double staining by flow cytometry (reference value: 90.4 %); assay type: functional; settings: read-out: Activity
MGC-803 [14] = assay: Induction of apoptosis in human MGC803 cells assessed as early apoptotic cells at 2 uM after 12 to 24 hrs using annexin V-FITC/PI double staining by flow cytometry (reference value: 1.6 %); assay type: functional
[15] = Anticancer activity against human EC109 cells assessed as inhibition of proliferation after 72 hrs by MTT assay; assay type: functional, cell-based; settings: ECa-109, 72 h
MGC-803 [16] = assay: Induction of apoptosis in human MGC803 cells assessed as necrotic cells at 4 uM after 12 to 24 hrs using annexin V-FITC/PI double staining by flow cytometry (reference value: 6.8 %); assay type: functional
MGC-803 [17] = assay: Induction of apoptosis in human MGC803 cells assessed as chromatin shrinkage at 1 to 4 uM after 24 hrs using Hoechst 33258 staining by fluorescence microscopy; assay type: functional, cell-based
MGC-803 [18] = assay: Induction of apoptosis in human MGC803 cells assessed as necrotic cells at 1 uM after 12 to 24 hrs using annexin V-FITC/PI double staining by flow cytometry (reference value: 6.8 %); assay type: functional
MCF7 = assay: Anticancer activity against human MCF7 cells assessed as inhibition of proliferation after 72 hrs by MTT assay; assay type: functional, cell-based; settings: MCF7, 72 h
MGC-803 [19] = assay: Induction of apoptosis in human MGC803 cells assessed as cell rounding at 1 to 4 uM after 24 hrs using Hoechst 33258 staining by fluorescence microscopy; assay type: functional, cell-based
[20] = Cytotoxicity against human GES-1 cells assessed as inhibition of proliferation after 72 hrs by MTT assay; assay type: cell-based; settings: GES1, 72 h
[21] = Anticancer activity against mouse B16F10 cells assessed as inhibition of proliferation after 72 hrs by MTT assay; assay type: functional, cell-based; settings: B16-F10, 72 h
MGC-803 [22] = assay: Induction of apoptosis in human MGC803 cells assessed as early apoptotic cells at 4 uM after 12 to 24 hrs using annexin V-FITC/PI double staining by flow cytometry (reference value: 1.6 %); assay type: functional
MGC-803 [23] = assay: Induction of apoptosis in human MGC803 cells assessed as increase in p53 level at 2 to 4 uM after 48 hrs by Western blot analysis; assay type: functional, cell-based
MGC-803 [24] = assay: Induction of apoptosis in human MGC803 cells assessed as late apoptotic cells at 1 uM after 12 to 24 hrs using annexin V-FITC/PI double staining by flow cytometry (reference value: 1.2 %); assay type: functional
MGC-803 [25] = assay: Induction of apoptosis in human MGC803 cells assessed as total apoptotic cells at 4 uM after 12 to 24 hrs using annexin V-FITC/PI double staining by flow cytometry (reference value: 2.8 %); assay type: functional

- IC50 (MGC-803 [9]): 7.03 µM
- IC50 (MCF7): 21 µM
Structure (SMILES): COc1cc(-c2nc(SCc3cn(CC(=O)NC(=O)Nc4ccccn4)nn3)nc(Nc3ccc(C)cc3)c2C#N)cc(OC)c1OC
- viability at 4 µM (MGC-803 [1]): 35.2%
- Activity (MGC-803 [2]): 32.5%
- viability at 2 µM (MGC-803 [3]): 65.8%
- Activity (MGC-803 [4]): 13.1%
- Activity (MGC-803 [5]): Active
- Activity (MGC-803 [6]): 17.2%
- Activity (MGC-803 [7]): Active
- Activity (MGC-803 [8]): 10.3%
- Activity (MGC-803 [10]): 1.7%
- Activity (MGC-803 [11]): 6.4%
- Activity (MGC-803 [12]): Dose-dependent effect
- viability at 1 µM (MGC-803 [13]): 80.3%
- Activity (MGC-803 [14]): 26.1%
- IC50 [15]: 21.3 µM
- Activity (MGC-803 [16]): 1.8%
- Activity (MGC-803 [17]): Active
- Activity (MGC-803 [18]): 2.5%
- Activity (MGC-803 [19]): Active
- IC50 [20]: > 64 µM
- IC50 [21]: 0.032 µM
- Activity (MGC-803 [22]): 52.7%
- Activity (MGC-803 [23]): Active
- Activity (MGC-803 [24]): 4.1%
- Activity (MGC-803 [25]): 63%
